Literature values as cited in patent publication US20050020589A1, “Sustained-release tablet composition comprising a dopamine receptor agonist” (Pfizer Inc., priority 2003, published 2005).

Solubility: highly soluble
Substance: (R)-5,6-dihydro-5-(methylarnino)-4H-imidazo[4,5-ij]-quinolin-2(1H)-one (Z)-2-butenedioate (1:1) [maleate salt of sumanirole]
